PMC9653409, “Generative deep learning enables the discovery of a potent and selective RIPK1 inhibitor” (Nature Communications, 2022)

What was measured:
Experiment in all cases: Kinase inhibitory activity profiling of RI-962@10 µM (406 kinases, Eurofins)
Assay type in all cases: biochemical
[1] = molecular target: panel of human kinases (kinase named in endpoint) (Homo sapiens, UniProt Q9NYY3); conditions: 10 µM; read-out: Activity (%), Snk(h)
How it was run: (§1)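 Radiometric filter-binding kinase assays: enzyme preincubated 15 min with compound in 8 mM MOPS pH 7.0, 0.2 mM EDTA, 250 μM peptide substrate, 10 mM magnesium acetate, 10 μM [γ-33P]-ATP. Reaction started with Mg/ATP, run 40 min at room temperature, stopped with phosphoric acid; 33P incorporation read by scintillation counting. Other kinases by similar protocols.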

[2] = molecular target: panel of human kinases (kinase named in endpoint) (Homo sapiens, UniProt Q86UX6); conditions: 10 µM; read-out: Activity (%), STK32C(h)
How it was run: as §1

[3] = molecular target: panel of human kinases (kinase named in endpoint) (Homo sapiens, UniProt Q8IVW4); conditions: 10 µM; read-out: Activity (%), CDKL3(h)
How it was run: as §1

[4] = molecular target: panel of human kinases (kinase named in endpoint) (Homo sapiens, UniProt P24723); conditions: 10 µM; read-out: Activity (%), PKCη(h)
How it was run: as §1

[5] = molecular target: panel of human kinases (kinase named in endpoint) (Homo sapiens, UniProt Q15349); conditions: 10 µM; read-out: Activity (%), Rsk3(h)
How it was run: as §1

[6] = molecular target: panel of human kinases (kinase named in endpoint) (Homo sapiens, UniProt Q00526); conditions: 10 µM; read-out: Activity (%), CDK3/cyclinE(h)
How it was run: as §1

[7] = molecular target: panel of human kinases (kinase named in endpoint) (Homo sapiens, UniProt P17612); conditions: 10 µM; read-out: Activity (%), PKA(h)
How it was run: as §1

[8] = molecular target: panel of human kinases (kinase named in endpoint) (Homo sapiens, UniProt Q02763); conditions: 10 µM; read-out: Activity (%), Tie2 (h)
How it was run: as §1

[9] = molecular target: panel of human kinases (kinase named in endpoint) (Homo sapiens, UniProt P15735); conditions: 10 µM; read-out: Activity (%), PhKγ2(h)
How it was run: as §1

[10] = molecular target: panel of human kinases (kinase named in endpoint) (Homo sapiens, UniProt P19525); conditions: 10 µM; read-out: Activity (%), PKR(h)
How it was run: as §1

[11] = molecular target: panel of human kinases (kinase named in endpoint) (Homo sapiens, UniProt Q9H3Y6); conditions: 10 µM; read-out: Activity (%), SRMS(h)
How it was run: as §1

[12] = molecular target: panel of human kinases (kinase named in endpoint) (Homo sapiens, UniProt P78362); conditions: 10 µM; read-out: Activity (%), SRPK2(h)
How it was run: as §1

[13] = molecular target: panel of human kinases (kinase named in endpoint) (Homo sapiens, UniProt P48730); conditions: 10 µM; read-out: Activity (%), CK1δ(h)
How it was run: as §1

[14] = molecular target: panel of human kinases (kinase named in endpoint) (Homo sapiens, UniProt P37023); conditions: 10 µM; read-out: Activity (%), ALK1(h)
How it was run: as §1

[15] = molecular target: panel of human kinases (kinase named in endpoint) (Homo sapiens, UniProt P07949, V804L); conditions: 10 µM; read-out: Activity (%), Ret (V804L)(h)
How it was run: as §1

[16] = molecular target: panel of human kinases (kinase named in endpoint) (Homo sapiens, UniProt Q9NYL2); conditions: 10 µM; read-out: Activity (%), ZAK(h)
How it was run: as §1

[17] = molecular target: panel of human kinases (kinase named in endpoint) (Homo sapiens, UniProt Q8TD19); conditions: 10 µM; read-out: Activity (%), NEK9(h)
How it was run: as §1

[18] = molecular target: panel of human kinases (kinase named in endpoint) (Homo sapiens, UniProt P42336, E542K); conditions: 10 µM; read-out: Activity (%), PI3(p110a(E542K)/p85a)
How it was run: as §1

[19] = molecular target: panel of human kinases (kinase named in endpoint) (Homo sapiens, UniProt O60285); conditions: 10 µM; read-out: Activity (%), ARK5(h)
How it was run: as §1

[20] = molecular target: panel of human kinases (kinase named in endpoint) (Homo sapiens, UniProt Q96PN8); conditions: 10 µM; read-out: Activity (%), TSSK3(h)
How it was run: as §1

[21] = molecular target: panel of human kinases (kinase named in endpoint) (Homo sapiens, UniProt Q8IU85); conditions: 10 µM; read-out: Activity (%), CaMKIδ(h)
How it was run: as §1

[22] = molecular target: panel of human kinases (kinase named in endpoint) (Homo sapiens, UniProt P48736); conditions: 10 µM; read-out: Activity (%), PI3 Kinase (p120g)(h)
How it was run: as §1

[23] = molecular target: panel of human kinases (kinase named in endpoint) (Homo sapiens, UniProt P36896); conditions: 10 µM; read-out: Activity (%), ALK4(h)
How it was run: as §1

[24] = molecular target: panel of human kinases (kinase named in endpoint) (Homo sapiens, UniProt Q96J92); conditions: 10 µM; read-out: Activity (%), WNK4(h)
How it was run: as §1

[25] = molecular target: panel of human kinases (kinase named in endpoint) (Homo sapiens, UniProt Q13177); conditions: 10 µM; read-out: Activity (%), PAK2(h)
How it was run: as §1

[26] = molecular target: panel of human kinases (kinase named in endpoint) (Homo sapiens, UniProt O00418); conditions: 10 µM; read-out: Activity (%), eEF-2K(h)
How it was run: as §1

Chain of panel of human kinases (kinase named in endpoint) (Homo sapiens, UniProt P07949, V804L) (P07949 29-1114 V804L): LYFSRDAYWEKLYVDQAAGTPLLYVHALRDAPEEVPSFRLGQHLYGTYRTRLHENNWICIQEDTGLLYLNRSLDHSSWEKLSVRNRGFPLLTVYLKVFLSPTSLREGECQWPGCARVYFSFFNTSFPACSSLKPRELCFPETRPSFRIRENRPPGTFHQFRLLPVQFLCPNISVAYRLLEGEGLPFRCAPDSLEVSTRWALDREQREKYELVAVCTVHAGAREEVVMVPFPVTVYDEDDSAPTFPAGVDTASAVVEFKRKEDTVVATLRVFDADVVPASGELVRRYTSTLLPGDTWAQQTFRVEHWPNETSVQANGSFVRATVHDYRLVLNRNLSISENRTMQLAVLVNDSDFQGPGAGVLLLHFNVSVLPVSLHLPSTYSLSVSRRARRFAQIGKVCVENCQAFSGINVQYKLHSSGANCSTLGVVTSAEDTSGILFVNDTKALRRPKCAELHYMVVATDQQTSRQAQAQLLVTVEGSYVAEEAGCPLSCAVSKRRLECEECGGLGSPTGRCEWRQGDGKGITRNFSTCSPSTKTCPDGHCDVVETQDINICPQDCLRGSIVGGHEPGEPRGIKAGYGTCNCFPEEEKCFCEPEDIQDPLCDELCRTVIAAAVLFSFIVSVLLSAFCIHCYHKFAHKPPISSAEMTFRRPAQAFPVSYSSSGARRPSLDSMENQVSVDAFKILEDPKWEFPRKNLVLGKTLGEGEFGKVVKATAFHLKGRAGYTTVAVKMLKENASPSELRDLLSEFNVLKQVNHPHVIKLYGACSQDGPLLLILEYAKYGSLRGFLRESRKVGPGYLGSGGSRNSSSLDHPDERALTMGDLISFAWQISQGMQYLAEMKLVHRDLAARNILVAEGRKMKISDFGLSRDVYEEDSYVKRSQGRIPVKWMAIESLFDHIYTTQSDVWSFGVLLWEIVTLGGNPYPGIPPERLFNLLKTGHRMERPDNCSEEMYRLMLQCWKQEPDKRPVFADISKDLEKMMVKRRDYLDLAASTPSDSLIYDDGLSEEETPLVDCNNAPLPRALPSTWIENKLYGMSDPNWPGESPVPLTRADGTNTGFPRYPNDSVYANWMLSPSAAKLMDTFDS
Chain of panel of human kinases (kinase named in endpoint) (Homo sapiens, UniProt P48736) (P48736 whole entry): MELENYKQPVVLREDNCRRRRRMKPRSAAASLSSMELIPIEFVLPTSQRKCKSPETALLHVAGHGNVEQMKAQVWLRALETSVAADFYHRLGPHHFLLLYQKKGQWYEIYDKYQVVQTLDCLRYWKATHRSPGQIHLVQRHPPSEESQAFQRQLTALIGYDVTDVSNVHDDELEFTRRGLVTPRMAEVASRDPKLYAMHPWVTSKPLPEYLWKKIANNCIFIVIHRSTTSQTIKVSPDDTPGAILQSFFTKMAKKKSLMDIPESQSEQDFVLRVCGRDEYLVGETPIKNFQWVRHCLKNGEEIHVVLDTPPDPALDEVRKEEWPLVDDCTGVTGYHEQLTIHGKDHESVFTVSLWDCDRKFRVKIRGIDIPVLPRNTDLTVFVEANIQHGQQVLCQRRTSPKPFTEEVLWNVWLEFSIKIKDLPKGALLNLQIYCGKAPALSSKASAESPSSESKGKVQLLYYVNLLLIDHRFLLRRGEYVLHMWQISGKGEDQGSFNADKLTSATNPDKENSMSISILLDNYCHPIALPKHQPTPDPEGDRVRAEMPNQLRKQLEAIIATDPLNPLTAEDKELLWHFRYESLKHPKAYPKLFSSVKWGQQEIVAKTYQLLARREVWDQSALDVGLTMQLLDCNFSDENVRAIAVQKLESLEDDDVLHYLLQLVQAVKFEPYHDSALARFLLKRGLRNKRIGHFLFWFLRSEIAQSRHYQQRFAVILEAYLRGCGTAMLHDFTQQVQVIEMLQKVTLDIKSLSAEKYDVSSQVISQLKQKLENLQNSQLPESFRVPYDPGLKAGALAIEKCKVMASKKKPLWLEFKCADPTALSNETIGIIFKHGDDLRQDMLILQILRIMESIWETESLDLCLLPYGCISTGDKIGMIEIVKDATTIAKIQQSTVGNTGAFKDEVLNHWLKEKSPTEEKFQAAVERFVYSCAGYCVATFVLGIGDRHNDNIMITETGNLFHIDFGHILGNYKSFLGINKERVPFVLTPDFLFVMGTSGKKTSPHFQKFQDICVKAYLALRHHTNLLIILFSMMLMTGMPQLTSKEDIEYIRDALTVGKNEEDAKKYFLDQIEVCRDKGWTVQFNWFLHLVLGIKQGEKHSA
Chain of panel of human kinases (kinase named in endpoint) (Homo sapiens, UniProt O60285) (O60285 whole entry): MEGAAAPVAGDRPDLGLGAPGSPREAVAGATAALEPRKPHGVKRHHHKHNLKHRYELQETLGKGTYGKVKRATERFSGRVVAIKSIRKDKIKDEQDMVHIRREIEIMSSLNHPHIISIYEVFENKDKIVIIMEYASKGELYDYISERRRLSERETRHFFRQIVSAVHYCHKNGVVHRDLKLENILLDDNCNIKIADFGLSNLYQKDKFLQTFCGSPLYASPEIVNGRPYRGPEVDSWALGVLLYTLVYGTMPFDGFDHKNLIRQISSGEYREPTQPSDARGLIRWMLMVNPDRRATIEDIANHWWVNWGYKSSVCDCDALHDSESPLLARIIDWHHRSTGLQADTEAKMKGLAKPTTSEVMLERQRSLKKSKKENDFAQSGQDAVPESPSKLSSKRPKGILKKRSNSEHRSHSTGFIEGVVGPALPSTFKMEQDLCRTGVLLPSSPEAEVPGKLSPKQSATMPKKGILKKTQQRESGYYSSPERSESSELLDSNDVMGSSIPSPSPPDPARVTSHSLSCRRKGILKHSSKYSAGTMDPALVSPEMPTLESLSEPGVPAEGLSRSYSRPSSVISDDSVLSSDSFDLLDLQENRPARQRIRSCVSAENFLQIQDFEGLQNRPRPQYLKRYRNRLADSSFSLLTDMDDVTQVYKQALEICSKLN
Chain of panel of human kinases (kinase named in endpoint) (Homo sapiens, UniProt Q9H3Y6) (Q9H3Y6 whole entry): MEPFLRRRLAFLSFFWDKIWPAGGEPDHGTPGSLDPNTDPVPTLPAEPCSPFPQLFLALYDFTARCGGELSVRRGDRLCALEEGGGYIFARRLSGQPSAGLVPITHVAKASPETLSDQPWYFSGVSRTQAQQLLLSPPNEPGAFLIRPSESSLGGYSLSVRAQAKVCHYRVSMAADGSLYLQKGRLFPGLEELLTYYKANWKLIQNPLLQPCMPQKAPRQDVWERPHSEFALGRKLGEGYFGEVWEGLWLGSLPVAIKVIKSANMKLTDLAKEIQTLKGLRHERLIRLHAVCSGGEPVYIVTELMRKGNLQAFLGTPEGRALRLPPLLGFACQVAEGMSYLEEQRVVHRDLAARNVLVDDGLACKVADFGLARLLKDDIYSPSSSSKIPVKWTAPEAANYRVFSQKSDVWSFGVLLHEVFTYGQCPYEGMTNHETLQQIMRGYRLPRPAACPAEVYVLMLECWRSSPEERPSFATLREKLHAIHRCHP
Chain of panel of human kinases (kinase named in endpoint) (Homo sapiens, UniProt Q13177) (Q13177 whole entry): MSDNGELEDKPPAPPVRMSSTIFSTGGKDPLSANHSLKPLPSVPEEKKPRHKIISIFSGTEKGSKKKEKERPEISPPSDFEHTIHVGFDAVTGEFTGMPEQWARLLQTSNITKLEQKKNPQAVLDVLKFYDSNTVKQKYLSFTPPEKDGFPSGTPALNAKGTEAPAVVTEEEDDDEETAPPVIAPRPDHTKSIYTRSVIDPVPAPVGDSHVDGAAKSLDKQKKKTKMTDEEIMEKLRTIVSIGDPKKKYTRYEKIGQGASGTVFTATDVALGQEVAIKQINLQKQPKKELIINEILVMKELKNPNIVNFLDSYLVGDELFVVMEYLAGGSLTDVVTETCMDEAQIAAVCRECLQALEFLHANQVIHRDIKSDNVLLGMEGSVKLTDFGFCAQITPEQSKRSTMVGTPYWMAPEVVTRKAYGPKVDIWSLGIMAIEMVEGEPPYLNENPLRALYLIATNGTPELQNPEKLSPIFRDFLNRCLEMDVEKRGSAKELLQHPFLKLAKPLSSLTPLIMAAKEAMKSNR
Chain of panel of human kinases (kinase named in endpoint) (Homo sapiens, UniProt Q96J92) (Q96J92 whole entry): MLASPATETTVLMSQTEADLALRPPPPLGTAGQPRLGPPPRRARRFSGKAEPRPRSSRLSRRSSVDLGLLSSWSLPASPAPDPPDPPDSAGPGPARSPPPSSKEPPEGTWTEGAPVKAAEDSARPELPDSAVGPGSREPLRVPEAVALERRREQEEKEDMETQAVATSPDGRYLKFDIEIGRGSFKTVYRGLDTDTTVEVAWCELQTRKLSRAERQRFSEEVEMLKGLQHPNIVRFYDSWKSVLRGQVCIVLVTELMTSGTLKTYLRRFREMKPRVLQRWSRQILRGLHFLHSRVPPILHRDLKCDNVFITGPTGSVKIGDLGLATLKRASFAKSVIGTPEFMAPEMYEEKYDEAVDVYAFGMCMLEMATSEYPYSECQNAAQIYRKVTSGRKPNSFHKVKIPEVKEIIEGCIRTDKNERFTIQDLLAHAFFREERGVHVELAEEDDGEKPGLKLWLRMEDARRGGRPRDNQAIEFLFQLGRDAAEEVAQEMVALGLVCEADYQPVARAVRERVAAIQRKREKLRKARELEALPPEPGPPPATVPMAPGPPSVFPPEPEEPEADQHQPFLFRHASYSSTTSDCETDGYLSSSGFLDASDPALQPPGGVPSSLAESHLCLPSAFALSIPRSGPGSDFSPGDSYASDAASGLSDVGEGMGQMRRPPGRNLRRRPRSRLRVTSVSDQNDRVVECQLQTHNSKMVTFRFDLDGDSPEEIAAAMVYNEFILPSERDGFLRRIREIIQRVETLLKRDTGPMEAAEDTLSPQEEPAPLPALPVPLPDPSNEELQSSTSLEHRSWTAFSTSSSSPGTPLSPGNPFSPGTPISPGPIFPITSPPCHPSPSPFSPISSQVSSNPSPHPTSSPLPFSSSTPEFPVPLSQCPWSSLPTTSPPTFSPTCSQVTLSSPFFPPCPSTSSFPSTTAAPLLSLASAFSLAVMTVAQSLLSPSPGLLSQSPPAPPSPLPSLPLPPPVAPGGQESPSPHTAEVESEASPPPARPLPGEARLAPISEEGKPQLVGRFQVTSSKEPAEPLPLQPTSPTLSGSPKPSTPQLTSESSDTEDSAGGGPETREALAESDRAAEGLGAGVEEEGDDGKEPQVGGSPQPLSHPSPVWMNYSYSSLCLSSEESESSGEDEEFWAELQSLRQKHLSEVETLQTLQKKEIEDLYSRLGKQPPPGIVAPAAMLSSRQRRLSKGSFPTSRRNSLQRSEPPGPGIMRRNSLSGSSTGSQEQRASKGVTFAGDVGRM

## CC(C)C(=O)Nc1nc2cc(-c3ccc4c(c3)c(C(=O)NC(C)c3ccccc3)cn4C)ccn2n1 (centres unmarked) [RI-962]
[1]
  activity at 10 µM: 79%
[2]
  activity at 10 µM: 76%
[3]
  activity at 10 µM: 84%
[4]
  activity at 10 µM: 99%
[5]
  activity at 10 µM: 110%
[6]
  activity at 10 µM: 119%
[7]
  activity at 10 µM: 97%
[8]
  activity at 10 µM: 90%
[9]
  activity at 10 µM: 93%
[10]
  activity at 10 µM: 97%
[11]
  activity at 10 µM: 101%
[12]
  activity at 10 µM: 100%
[13]
  activity at 10 µM: 108%
[14]
  activity at 10 µM: 94%
[15]
  activity at 10 µM: 103%
[16]
  activity at 10 µM: 72%
[17]
  activity at 10 µM: 85%
[18]
  activity at 10 µM: 97%
[19]
  activity at 10 µM: 83%
[20]
  activity at 10 µM: 94%
[21]
  activity at 10 µM: 104%
[22]
  activity at 10 µM: 80%
[23]
  activity at 10 µM: 90%
[24]
  activity at 10 µM: 80%
[25]
  activity at 10 µM: 84%
[26]
  activity at 10 µM: 112%
